Source: patent publication US20220363665A1, “QUINOLINE COMPOUNDS FOR THE TREATMENT OF AUTOIMMUNE DISEASE” (Hoffmann-La Roche Inc., priority 2019, published 2022)

Tests used:
[1] = biological target: T1, human TLR9 (Homo sapiens, UniProt Q9NR96); assay: HEK293-Blue-hTLR-9 cells assay (SEAP reporter, ODN2006 stimulation); assay type: cell-based; conditions: HEK293-Blue-hTLR9 cells, ODN2006, 20 hrs
T1 construct: host or cells: HEK293 (HEK-Blue hTLR9)
T1 sequence (Q9NR96 26-1032): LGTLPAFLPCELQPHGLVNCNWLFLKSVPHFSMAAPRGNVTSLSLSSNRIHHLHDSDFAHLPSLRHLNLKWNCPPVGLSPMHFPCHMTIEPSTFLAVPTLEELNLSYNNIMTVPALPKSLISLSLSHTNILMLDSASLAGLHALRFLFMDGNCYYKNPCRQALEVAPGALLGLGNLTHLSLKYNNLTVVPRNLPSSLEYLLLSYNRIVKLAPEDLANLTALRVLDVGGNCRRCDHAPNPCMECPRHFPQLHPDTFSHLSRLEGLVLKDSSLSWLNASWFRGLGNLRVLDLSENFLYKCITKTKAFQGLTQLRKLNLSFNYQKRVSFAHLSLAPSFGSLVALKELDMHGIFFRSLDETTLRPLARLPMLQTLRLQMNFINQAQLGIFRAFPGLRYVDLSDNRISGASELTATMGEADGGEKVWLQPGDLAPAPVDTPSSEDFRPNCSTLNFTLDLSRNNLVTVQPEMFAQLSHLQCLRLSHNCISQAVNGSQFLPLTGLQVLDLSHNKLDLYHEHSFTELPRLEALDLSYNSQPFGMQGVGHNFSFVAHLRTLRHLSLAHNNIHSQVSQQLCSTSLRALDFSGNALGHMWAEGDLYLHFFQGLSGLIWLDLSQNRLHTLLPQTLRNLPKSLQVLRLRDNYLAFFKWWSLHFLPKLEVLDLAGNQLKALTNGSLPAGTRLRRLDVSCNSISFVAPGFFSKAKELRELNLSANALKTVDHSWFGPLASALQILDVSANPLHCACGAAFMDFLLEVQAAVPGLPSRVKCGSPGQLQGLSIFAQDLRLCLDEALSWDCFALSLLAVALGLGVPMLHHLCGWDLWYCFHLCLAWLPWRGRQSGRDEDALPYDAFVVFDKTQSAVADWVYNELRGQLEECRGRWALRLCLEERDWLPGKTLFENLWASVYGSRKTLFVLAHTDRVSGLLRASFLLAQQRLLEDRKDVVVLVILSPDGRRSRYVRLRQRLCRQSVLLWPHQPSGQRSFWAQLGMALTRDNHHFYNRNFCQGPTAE
Experimental: The following tests were carried out in order to determine the activity of the compounds of formula (I) in HEK293-Blue-hTLR-7/8/9 cells assay.
HEK293-Blue-hTLR-9 Cells Assay:
A stable HEK293-Blue-hTLR-9 cell line was purchased from InvivoGen (Cat. #. hkb-htlr9, San Diego, Calif., USA). These cells were originally designed for studying the stimulation of human TLR9 by monitoring the activation of NF-κB. A SEAP (secreted embryonic alkaline phosphatase) reporter gene was placed under the control of the […] minimal promoter fused to five NF-κB and AP-1-binding sites. The SEAP was induced by activating NF-κB and AP-1 via stimulating HEK-Blue hTLR9 cells with TLR9 ligands. Therefore the reporter expression was declined by TLR9 antagonist under the stimulation of a ligand, such as ODN2006 (Cat. #: tlrl-2006-1, Invivogen, San Diego, Calif., USA), for incubation of 20 hrs. The cell culture supernatant SEAP reporter activity was determined using QUANTI-Blue™ kit (Cat. #: rep-qbl, Invivogen, San Diego, Calif., USA) at a wavelength of 640 nm, a detection medium that turns purple or blue in the presence of alkaline phosphatase.
HEK293-Blue-hTLR9 cells were incubated at a density of […] cells/mL in a volume of 170 μL, in a 96-well plate in Dulbecco's Modified Eagle's medium (DMEM) containing 4.5 g/L glucose, 50 U/mL penicillin, […], […], 2 mM L-glutamine, 10% (v/v) heat-inactivated fetal bovine serum with addition of 20 μL test compound in a serial dilution in the presence of final DMSO at 1% and 10 μL of 20 uM ODN2006 in above DMEM, perform incubation under 37° C. in a CO2 incubator for 20 hrs. Then 20 μL of the supernatant from each well was incubated with 180 μL Quanti-blue substrate solution at 37° C. for 2 hrs and the absorbance was read at 620˜655 nm using a spectrophotometer. The signalling pathway that TLR9 activation leads to downstream NF-κB activation has been widely accepted, and therefore similar reporter assay was modified for evaluating TLR9 antagonist.

[2] = biological target: T2, CYP2C9 (Homo sapiens, UniProt P11712); assay: CYP inhibition assay in human liver microsome, CYP2C9; assay type: in vitro ADME; conditions: human, liver microsomes, probe diclofenac, HLM, diclofenac substrate, read-out: CYP inhibition % @10 uM (2C9)
T2 construct: tissue BD-Gentest 452117; host or cells: human liver microsomes
T2 sequence (P11712 whole entry): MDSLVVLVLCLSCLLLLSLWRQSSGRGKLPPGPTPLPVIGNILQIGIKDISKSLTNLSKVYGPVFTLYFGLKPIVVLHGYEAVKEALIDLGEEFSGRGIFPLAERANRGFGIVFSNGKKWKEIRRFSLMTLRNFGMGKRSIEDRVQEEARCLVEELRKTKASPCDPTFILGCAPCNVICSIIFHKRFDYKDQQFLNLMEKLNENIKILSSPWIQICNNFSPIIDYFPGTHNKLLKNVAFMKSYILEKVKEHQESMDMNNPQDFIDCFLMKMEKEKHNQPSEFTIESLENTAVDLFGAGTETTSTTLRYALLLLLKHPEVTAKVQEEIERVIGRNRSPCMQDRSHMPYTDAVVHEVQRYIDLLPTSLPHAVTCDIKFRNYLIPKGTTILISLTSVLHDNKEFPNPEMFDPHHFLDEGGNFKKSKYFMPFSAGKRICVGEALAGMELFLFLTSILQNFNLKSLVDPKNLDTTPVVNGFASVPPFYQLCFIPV
Experimental: This is a high throughput screening assay used for assessment of reversible inhibition of CYP2C9, CYP2D6, and CYP3A4 activity of test compounds in human liver microsome (HLM) in early discovery stage.
10 mM DMSO stock solutions of test compounds were diluted in DMSO to generate 2 mM intermediate stock solution. 250 nL of intermediate stock solution were transferred in duplicate into 3 separate 384 well microtitre plates (assay-ready plates). A mixture of HLM and each substrate was made up. 45 μL of HLM substrate mix was then transferred to each well of an assay ready plate and mixed. The negative (solvent) and positive controls (standard inhibitor for each CYP) were included in each assay ready plate. The assay ready plate was warmed to 37° C. in an incubator over 10 minutes. 5 μL pre-warmed NADPH regenerating system was added to each incubation well to start the reaction. Final incubation volume was 50 μL. The assay plate then was placed back in the 37° C. incubator. After 5 minutes incubation (10 minutes for CYP2D6), incubates were quenched by addition of 50 μL quench reagent containing internal standards (400 ng/mL 13C6-4′-OH-Diclofenac, 20 ng/mL D3-Dextrorphan and 20 ng/mL D4-1′OH-Midazolam in acetonitrile). The supernatants were collected for RapidFire/MS/MS analysis.
RapidFire online solid phase extraction/sample injection system (Agilent) coupled with API4000 triple quadrupole mass spectrometer (AB Sciex) were used for sample analysis. The mobile phase composed of acetonitrile and water supplemented with 0.1% formic acid. A C4 solid phase extraction cartridge is used for sample separation. MS detection is achieved in positive ion MRM mode.
Peak areas for substrate, metabolite and internal standard are determined using the
RapidFire integrator software (version 3.6.12009.12296). Peak area ratios (PAR) of metabolite and internal standard (stable-labelled metabolite) are then calculated. The measurement window for each experiment is then defined:
PAR (0% activity)=average PAR for all incubations containing concentrated inhibitor;
Par (100% activity)=average PAR for all incubations containing no inhibitor (DMSO controls);
% Activity (test inhibitor) =[PAR(test inhibitor)-PAR(0% activity)][PAR(100% activity)-PAR(0% activity)];
% Inhibition (test inhibitor)=100-% Activity (test inhibitor).
Percentage inhibition data are then reported, in duplicate, for the 3 CYP enzymes.

| Compound | IC50 [1] | inhibition at 5 min, 10 µM [2] |
| --- | --- | --- |
| Cc1ccc(N2C[C@@H](C)O[C@@H](C(=O)NC3CCN(C)CC3)C2)c2cccnc12 [Example 16, (2R,6R)-6-methyl-N-(1-methyl-4-piperidyl)-4-(8-methyl-5-quinolyl)morpholine-2-carboxamide] | 39.9 µM | -8% |
| Cc1ccc(N2C[C@@H](C)O[C@@H](C(=O)NCC3CN(C)CCO3)C2)c2cccnc12 (stereo partly drawn) [Example 17, (2R,6R)-6-methyl-N-[(4-methylmorpholin-2-yl)methyl]-4-(8-methyl-5-quinolyl)morpholine-2-carboxamide] | > 100 µM | -4% |
| C[C@@H]1CN(c2ccc([N+](=O)[O-])c3ncccc23)C[C@H](C(=O)NCC2CN(C)CCO2)O1 (stereo partly drawn) [Example 18, (2R,6R)-6-methyl-N-[(4-methylmorpholin-2-yl)methyl]-4-(8-nitro-5-quinolyl)morpholine-2-carboxamide] | 54.8 µM | -4% |
| C[C@@H]1CN(c2ccc([N+](=O)[O-])c3ncccc23)C[C@H](C(=O)NC2CCN(C)CC2)O1 [Example 20, (2R,6R)-6-methyl-N-(1-methyl-4-piperidyl)-4-(8-nitro-5-quinolyl)morpholine-2-carboxamide] | 14.9 µM | -6% |
| C[C@H]1C[C@@H](N)CN(c2ccc(Cl)c3ncccc23)C1 [Example 23, (3R,5S)-1-(8-chloro-5-quinolyl)-5-methyl-piperidin-3-amine] | 7 µM | -16% |
| C[C@@H]1CN(c2ccc(Cl)c3ncccc23)C[C@H](C(=O)NC2CCN(C)CC2)O1 [Example 24, (2R,6R)-4-(8-chloro-5-quinolyI)-6-methyl-N-(1-methyl-4-piperidyl)morpholine-2-carboxamide] | 23.7 µM | -20% |
| C[C@@H]1CN(c2ccc(Cl)c3ncccc23)C[C@H](C(=O)NC2CCCNCC2)O1 (stereo partly drawn) [Example 25, (2R,6R)-N-(azepan-4-yl)-4-(8-chloro-5-quinolyl)-6-methyl-morpholine-2-carboxamide] | 12.4 µM | 26% |
| C[C@@H]1CN(c2ccc(Cl)c3ncccc23)C[C@H](C(=O)NCC2CN(C)CCO2)O1 (stereo partly drawn) [Example 26, (2R,6R)-4-(8-chloro-5-quinolyl)-6-methyl-N-[(4-methylmorpholin-2-yl)methyl]morpholine-2-carboxamide] | 46 µM | -13% |
| C[C@@H]1CN(c2ccc(C(F)(F)F)c3ncccc23)C[C@H](C(=O)NC[C@@H]2C[C@@H](F)CN2)O1 [Example 27, (2R,6R)-N-[[(2S,4R)-4-fluoropyrrolidin-2-yl]methyl]-6-methyl-4-[8-(trifluoromethyl)-5-quinolyl]morpholine-2-carboxamide] | 28.1 µM | -8% |
| C[C@@H]1CN(c2ccc(C(F)(F)F)c3ncccc23)C[C@H](C(=O)NC2CNCC(F)(F)C2)O1 (stereo partly drawn) [Example 28, (2R,6R)-N-(5,5-difluoro-3-piperidyl)-6-methyl-4-[8-(trifluoromethyl)-5-quinolyl]morpholine-2-carboxamide] | > 100 µM | 23% |
| C[C@@H]1CN(c2ccc(C(F)(F)F)c3ncccc23)C[C@H](C(=O)NC[C@@H]2CC(F)(F)CN2)O1 [Example 30] | > 100 µM | 20% |
| C[C@@H]1CN(c2ccc(C(F)(F)F)c3ncccc23)C[C@H](C(=O)NC2C3CCC2CNC3)O1 (stereo partly drawn) [Example 31, (2R,6R)-N-(3-azabicyclo[3.2.1]octan-8-yl)-6-methyl-4-[8-(trifluoromethyl)-5-quinolyl]morpholine-2-carboxamide] | 9.2 µM | -1% |
| C[C@@H]1CN(c2ccc(C(F)(F)F)c3ncccc23)C[C@H](C(=O)N2CCC3(CCNCC3)CC2)O1 [Example 32, 3,9-diazaspiro[5.5]undecan-3-yl-[(2R,6R)-6-methyl-4-[8-(trifluoromethyl)-5-quinolyl]morpholin-2-yl]methanone] | 3.7 µM | -8% |
| C[C@@H]1CN(c2ccc(C(F)(F)F)c3ncccc23)C[C@H](C(=O)N2CCC3(CCNC3)C2)O1 (stereo partly drawn) [Example 36] | 12.3 µM | 1% |
| C[C@@H]1CN(c2ccc(C(F)(F)F)c3ncccc23)C[C@H](C(=O)NC2CC3CNCC(C3)C2)O1 (stereo partly drawn) [Example 37, (2R,6R)-N-(3-azabicyclo[3.3.1]nonan-7-yl)-6-methyl-4-[8-(trifluoromethyl)-5-quinolyl]morpholine-2-carboxamide] | 7.8 µM | 4% |
| C[C@@H]1CN(c2ccc(I)c3ncccc23)C[C@H](C(=O)NC2CCN(C)CC2)O1 [Example 38, (2R,6R)-4-(8-iodo-5-quinolyl)-6-methyl-N-(1-methyl-4-piperidyl)morpholine-2-carboxamide] | 6 µM | -3% |
| C[C@@H]1CN(c2ccc(I)c3ncccc23)C[C@H](C(=O)NCC2CN(C)CCO2)O1 (stereo partly drawn) [Example 39, (2R,6R)-4-(8-iodo-5-quinolyl)-6-methyl-N-[(4-methylmorpholin-2-yl)methyl]morpholine-2-carboxamide] | 35.8 µM | -7% |
| C[C@@H]1CN(c2ccc(Br)c3ncccc23)C[C@H](C(=O)NC2CCN(C)CC2)O1 [Example 42, (2R,6R)-4-(8-bromo-5-quinolyl)-6-methyl-N-(1-methyl-4-piperidyl)morpholine-2-carboxamide] | 10.6 µM | -4% |
